# Measurements published in BindingDB's records for doi:10.1016/j.bmcl.2012.05.087 (Actelion Pharmaceuticals, 2012).
# Assay: Antagonist activity at human CRTh2 receptor in human whole blood assessed as inhibition of PGD2-induced eosinophil shape change after 10 mins by flow cytometric analysis in presence of 50% human plasma
row,SMILES,IC50
1,CCCCNC(=O)c1ccc(OC)c(CSc2nc3cc(F)ccc3n2CC(=O)O)c1,41 nM
2,COc1ccc(C(C)=O)cc1CSc1nc2ccccc2n1CC(=O)O,16 nM
3,COc1ccc(C(=O)N2CCc3ccccc32)cc1CSc1nc2cc(F)ccc2n1CC(=O)O,51 nM
